Our source for the IC50, ED50 and Inhibition values is ChEMBL document CHEMBL1152108, “Dual metalloprotease inhibitors. II. Effect of substitution and stereochemistry on benzazepinone based mercaptoacetyls” (Bioorg Med Chem Lett, 1994).

Assay [1] has as its target Angiotensin-converting enzyme (Homo sapiens, UniProt P12821). In words: Inhibition of Angiotensin I converting enzyme. The following applies: read-out: I50.
The next assay concerns the target Neprilysin (Homo sapiens, UniProt P08473). The experiment in a line: Inhibition of Neutral Endopeptidase (NEP). The settings on record: read-out: I50.
The test system of assay [2] is Rattus norvegicus. In words: Compound was tested in vivo for inhibition of Angiotensin I(AI) induced pressor response in normotensive rat after iv administration. The assay is classed as functional.
The subject of assay [3] is Rattus norvegicus. In words: Maximal percentage inhibition of Angiotensin I(AI) induced pressor response in normotensive rat at 0.15 (umol/kg) (iv). The assay is classed as functional.

Structures are written as SMILES.

Sequence of Angiotensin-converting enzyme (P12821 whole entry): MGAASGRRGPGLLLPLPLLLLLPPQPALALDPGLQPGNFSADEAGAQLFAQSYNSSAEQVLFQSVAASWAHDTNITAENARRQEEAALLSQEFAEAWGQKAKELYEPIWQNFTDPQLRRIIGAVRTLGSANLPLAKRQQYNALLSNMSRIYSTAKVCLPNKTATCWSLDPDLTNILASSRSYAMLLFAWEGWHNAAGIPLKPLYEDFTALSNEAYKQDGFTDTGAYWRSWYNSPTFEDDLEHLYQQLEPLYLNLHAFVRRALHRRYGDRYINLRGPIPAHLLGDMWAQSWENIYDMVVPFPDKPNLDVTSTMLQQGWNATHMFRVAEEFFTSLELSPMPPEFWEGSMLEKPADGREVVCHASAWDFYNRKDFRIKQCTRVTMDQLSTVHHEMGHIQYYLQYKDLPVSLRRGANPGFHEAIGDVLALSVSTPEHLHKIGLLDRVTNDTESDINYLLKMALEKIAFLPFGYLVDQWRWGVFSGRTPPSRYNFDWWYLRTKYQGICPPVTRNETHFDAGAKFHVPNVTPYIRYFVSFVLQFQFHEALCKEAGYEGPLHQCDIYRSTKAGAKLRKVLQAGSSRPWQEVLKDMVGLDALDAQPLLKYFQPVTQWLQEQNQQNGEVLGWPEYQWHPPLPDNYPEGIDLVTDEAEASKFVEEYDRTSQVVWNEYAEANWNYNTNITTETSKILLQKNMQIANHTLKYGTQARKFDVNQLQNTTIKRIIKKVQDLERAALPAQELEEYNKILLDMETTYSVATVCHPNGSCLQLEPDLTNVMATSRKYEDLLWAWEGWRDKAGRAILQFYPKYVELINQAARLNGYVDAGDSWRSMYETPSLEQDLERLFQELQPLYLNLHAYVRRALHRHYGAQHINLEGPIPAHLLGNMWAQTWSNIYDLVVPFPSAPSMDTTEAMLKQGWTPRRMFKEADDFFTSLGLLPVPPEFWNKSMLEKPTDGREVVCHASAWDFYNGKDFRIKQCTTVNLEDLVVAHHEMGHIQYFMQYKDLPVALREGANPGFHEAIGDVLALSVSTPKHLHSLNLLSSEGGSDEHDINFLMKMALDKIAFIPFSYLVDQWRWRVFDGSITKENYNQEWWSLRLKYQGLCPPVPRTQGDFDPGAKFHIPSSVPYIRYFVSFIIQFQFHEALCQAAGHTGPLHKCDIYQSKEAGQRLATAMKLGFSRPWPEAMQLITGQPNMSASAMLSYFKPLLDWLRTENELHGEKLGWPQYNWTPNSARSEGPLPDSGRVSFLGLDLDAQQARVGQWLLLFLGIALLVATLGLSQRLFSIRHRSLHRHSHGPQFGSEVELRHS
Sequence of Neprilysin (P08473 whole entry): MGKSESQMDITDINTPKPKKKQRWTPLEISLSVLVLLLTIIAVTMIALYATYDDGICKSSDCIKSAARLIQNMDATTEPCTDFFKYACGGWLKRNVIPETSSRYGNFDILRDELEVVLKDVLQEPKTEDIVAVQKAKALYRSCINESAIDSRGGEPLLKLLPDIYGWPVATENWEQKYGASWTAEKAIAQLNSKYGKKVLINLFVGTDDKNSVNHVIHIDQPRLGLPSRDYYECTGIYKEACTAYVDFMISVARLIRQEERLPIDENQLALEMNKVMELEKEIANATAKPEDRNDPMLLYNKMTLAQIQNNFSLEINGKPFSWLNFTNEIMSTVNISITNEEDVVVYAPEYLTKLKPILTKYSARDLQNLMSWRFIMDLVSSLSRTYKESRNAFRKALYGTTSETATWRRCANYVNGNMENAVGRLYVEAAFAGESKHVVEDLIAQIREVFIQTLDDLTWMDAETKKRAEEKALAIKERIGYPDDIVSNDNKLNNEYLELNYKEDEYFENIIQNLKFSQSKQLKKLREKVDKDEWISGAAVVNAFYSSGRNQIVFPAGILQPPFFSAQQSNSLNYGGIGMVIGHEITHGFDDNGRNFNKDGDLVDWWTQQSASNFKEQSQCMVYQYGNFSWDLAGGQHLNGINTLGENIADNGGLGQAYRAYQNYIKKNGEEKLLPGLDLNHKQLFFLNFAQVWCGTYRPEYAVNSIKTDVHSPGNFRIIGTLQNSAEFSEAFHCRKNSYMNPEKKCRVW

`O=C(O)CN1C(=O)[C@H](NC(=O)[C@@H](S)Cc2ccccc2)CCc2ccccc21`: the IC50 in assay [1] worked out at 306 nM; on Neprilysin it was 560 nM.

Turning to `CC(S)(Cc1ccccc1)C(=O)N[C@H]1CCc2ccccc2N(CC(=O)O)C1=O` (stereo in doubt; form 2), the IC50 in assay [1] came out at 63 nM; at Neprilysin it was 2000 nM.

On to `O=C(O)CN1Cc2ccccc2C[C@H](NC(=O)[C@@H](S)Cc2ccccc2)C1=O`, for which the IC50 in assay [1] worked out at 33 nM; at Neprilysin it was 175 nM.

The ED50 is the dose at which the effect has come halfway, by size or by number of responders. On to `CCCC[C@H](S)C(=O)N[C@H]1CCc2ccccc2N(CC(=O)O)C1=O`, for which the figures for the IC50 (in assay [1]; at Neprilysin) were 5.4 nM and 36 nM, respectively. This compound also returned a 50% effective dose (ED50) with Rattus norvegicus [2] of 0.06 µmol/kg.

Take `O=C(O)CN1C(=O)[C@@H](NC(=O)[C@@H](S)CC2CCCCC2)CCc2ccccc21`: the IC50 in assay [1] is 22 nM; at Neprilysin, 4260 nM.

Regarding `C[C@H](S)C(=O)N[C@H]1CCc2ccccc2N(CC(=O)O)C1=O`, the IC50 in assay [1] was 24 nM; at Neprilysin it was 1850 nM.

A word on the Inhibition: it is how much of the control response was suppressed. High values mean strong suppression, low ones little suppression. In the case of `C[C@H](NC(=O)[C@@H](S)Cc1ccccc1)C(=O)N(CC(=O)O)c1ccccc1`, the results for the IC50 (in assay [1]; at Neprilysin) were 14 nM and 137 nM, respectively. The same compound came in with an Inhibition in the assay on Rattus norvegicus [3] of 42%. The compound further had a median effective dose (ED50) in the assay on Rattus norvegicus [2] of 0.15 µmol/kg.

With `O=C(O)CN1C(=O)[C@@H](NC(=O)[C@@H](S)Cc2ccccc2)CCc2ccccc21`, the IC50 on Neprilysin is 6 nM. In the assay with Rattus norvegicus [2], it took a dose of 0.02 µmol/kg to reach the 50% effect level (ED50).

As for `O=C(O)CN1C(=O)[C@@H](NC(=O)[C@H](S)Cc2ccccc2)CCc2ccccc21`, the results for the IC50 (in assay [1]; at Neprilysin) were 284 nM and 14 nM, respectively.

As to `O=C(O)CN1C(=O)C(NC(=O)[C@@H](S)Cc2ccccc2)CCCc2ccccc21` (stereo partly specified), the values for the IC50 (in assay [1]; at Neprilysin) were 25 nM and 1120 nM, respectively.

Turning to `CC(S)(Cc1ccccc1)C(=O)N[C@H]1CCc2ccccc2N(CC(=O)O)C1=O` (stereo in doubt; form 1), the values for the IC50 (in assay [1]; at Neprilysin) were 183 nM and 865 nM, respectively.

For the compound `O=C(O)CN1CCCC[C@H](NC(=O)[C@@H](S)Cc2ccccc2)C1=O`, the IC50 in assay [1] amounted to 22 nM; on Neprilysin, 82 nM. For the same compound, the ED50 with Rattus norvegicus [2] came to 0.83 µmol/kg.

Consider `CC(C)C[C@H](S)C(=O)N[C@H]1CCc2ccccc2N(CC(=O)O)C1=O`, for which the IC50 turned out to be 6.3 nM in assay [1] and 7 nM at Neprilysin. In the assay on Rattus norvegicus [2], this compound gave an ED50 of 0.23 µmol/kg.
